In patent publication US6413773B1, “Phosphatidylinositol 3-kinase inhibitors as stimulators of endocrine differentiation” (The Regents of the University of California, priority 1998, dated 2002):

Experiments:
[1] = tested on: islet hormone gene expression in human fetal ICCs; details: earlier publications; cited from earlier work
PIP3 = assay: Determination of total cellular PIP3 in [32P]orthophosphate-labeled ICCs; format: cell-based, human
Method: The ICCs, which were pretreated for 5 d with PI3K inhibitors, NIC, HGF/SF, or control buffer, were subsequently harvested and suspended at a concentration of 2 3 10 5 cells/ml in buffer A (30 mM Hepes, pH 7.2, 110 mM NaCl, 10 mM KCl, 1 mM MgCl2, 10 mM glucose), and 1 mCi/ml [^32P]orthophosphate ([…]; DuPont/NEN) was added. The cells were incubated at 37° C. for 2 h and then washed 3× with buffer A. Depending on the type of experiment, the labeled islet cells were either directly lysed by addition of 3 ml chloroform/methanol (1:2, vol/vol), followed by 4 ml chloroform/2.4 M HCl (1: 1, vol/vol) (to measure basal levels of PIP3 ), or labeled cells were first stimulated with 25 ng/ml HGF/SF for the indicated times, and subsequently the reaction was stopped as above (to measure the inducible levels of PIP3 ). Phospholipids were extracted and analyzed by thinlayer chromatography, and the total cellular PIP3 was quantified, as we described previously in detail (Ptasznik et al. (1996) J. Biol. Chem. 271 :25204-25207).

PI3K [2] = assay: PI3K assay on immunoprecipitates from treated fetal ICCs; format: cell-based, human; details: for control PI3K activity eliminated, p85 immunoprecipitates: 100 nM wortmannin or 10 μM Ly294002, 5 d
Source text: (§1) The use of human fetal tissue for these studies was reviewed and approved by the Institutional Review Board at our university. Human fetal pancreases at 18-24 gestational wk were obtained with appropriate permissions and patient consent through nonprofit organ procurement programs (Advanced Bioscience Resources, Oakland, Calif.; Anatomic Gift Foundation, Laurel, Md.). Experiments were started by the enzymatic digestion with collagenase P (Boehringer Mannheim Corp., Indianapolis, Ind.) of the human fetal pancreases followed by tissue culture for 5 d, which led to the formation in vitro of ICCs, as previously described in detail (Otonkoski et al. (1993) J. Clin. Invest. 92:1459-1466).
PI3K inhibitors, NIC, or HGF/SF were added to the culture medium from the very beginning. Medium plus factor was changed every day for 5 d. For direct comparison, portions of the same pancreases were grown, treated with factors, and used for transcriptional analyses, insulin content and secretion, PI3K activities, and DNA synthesis.
(§2) Aliquots of cell lysates normalized for protein content were incubated for 3 h with antiPI3K antibodies directed against the 85kD regulatory subunit or with antiphosphotyrosine antibodies (Upstate Biotechnology, Inc., Lake Placid, N.Y.). The immune complexes were absorbed onto protein A-Sepharose and washed as described (Ptasznik et al. (1995) J. Biol. Chem. 270:19969-19973). PI3K assays were performed directly on beads. Briefly, the reaction was carried out for 10 min in a buffer containing 40 mM Hepes, pH 7.2, 6 mM MgCl2, 1 mM EDTA, […] (Avanti Polar Lipids, Alabaster, Ala.), […], and 10 mCi [γ^32P]ATP (6,000 Ci/mmol; DuPont/NEN, Wilmington, Del.). Adenosine (0.2 mM) was added to the reaction mixture to inhibit residual PI 4 kinase activity. After the incubation, the reaction was stopped with methanol plus 2.4 N HCl (1:1, vol/vol), and lipids were extracted, analyzed by thin-layer chromatography, and quantified as described previously (Ptasznik et al. (1995) J. Biol. Chem. 270:19969-19973). In some experiments, the direct binding of PI3K to p190Met after HGF/SF stimulation of islet cells was determined, as previously described in detail (Graziani, et al. (1991) J. Biol. Chem. 266:22087-22090).

human fetal ICCs [3] = assay: Insulin content and insulin release of ICCs; format: cell-based
Source text: as §1, with “92:1459-1466). […] After incubation with various factors in culture, the ICCs were harvested, and measurements of insulin content, insulin release in response to glucose plus theophylline, and [^3H]thymidine incorporation into DNA were performed as described previously (Otonkoski et al. (1993) J. Clin. Invest. 92:1459-1466).” for “92:1459-1466).”

[4] = tested on: fetal pancreatic cells growing as islet-like cell clusters; assay: Cytotoxicity and apoptosis in culture
[5] = tissue culture medium; cited from earlier work
human fetal ICCs [6] = assay: [3H]thymidine incorporation into DNA; format: cell-based; details: ICCs 5 d with inhibitor, FIG. 4A
Method: After incubation with various factors in culture, the ICCs were harvested, and measurements of insulin content, insulin release in response to glucose plus theophylline, and [^3H]thymidine incorporation into DNA were performed as described previously (Otonkoski et al. (1993) J. Clin. Invest. 92:1459-1466).

human fetal ICCs [7] = assay: Triple immunofluorescence, confocal microscopy and morphometric analysis; format: cell-based
Method: ICCs cultured for 5 d in either control medium or medium containing 10 μM Ly 294002 were paraffin embedded, and […] sections were stained for hormone immunoreactivity. To simultaneously identify cells producing insulin, glucagon, somatostatin, and pancreatic polypeptide (pp), we followed a modification of our previous protocol for multiple labeling (Otonkoski et al. (1996) J. Clin. Invest. 79:351-358). Briefly, sections were incubated for 1 h at room temperature with a mixture of primary antibodies: IgG fraction of a sheep anti-human insulin antiserum (The Binding Site, Birmingham, England) ([…]), mouse monoclonal anti-human glucagon (Sigma Chemical Co.) (1 mg/ml), rabbit anti-human somatostatin antiserum (Dako Corporation, Carpinteria, Calif.) (used at 1:100 dilution), and rabbit anti-human pp antiserum (Chemicon International, Inc., Temecula, Calif.) (used at 1:100 dilution). In separate sections, a mixture of normal sheep, rabbit, and mouse IgGs was used as control reference for specificity of primary antibodies. After washings in PBSDS (5 mM glycine, 0.2% donkey serum, 0.1% BSA), sections were incubated for 1 h at room temperature with a cocktail of F(ab′)2 fractions from secondary antibodies: lissamine-rhodamine-conjugated affinity-purified donkey anti-sheep IgGs ([…]); FITC-conjugated affinity-purified donkey anti-rabbit IgGs ([…]); and indodicarbocyanine-conjugated affinity-purified donkey anti-mouse IgGs ([…]). All F(ab′)2 were preadsorbed on appropriate multiple species to eliminate the possibility of crossreactivity in multiple labeling protocols (Jackson ImmunoResearch Labs, Inc., West Grove, Pa.). The sections were processed as previously described (Otonkoski et al. (1996) J. Clin. Invest. 79:351-358) and viewed on a laser scanning confocal microscope (model MRC1024; BioRad Laboratories, Hercules, Calif.).
Sections were prepared from control and Ly294002 treated ICCs from three independent experiments. […] All images collected (one image per section) were then analyzed for total surface area and insulin, glucagon, somatostatin, and positive cell surface area by using measurement tools in the software NIH Image 1.60 (National Institutes of Health, Bethesda, Md.). Data were analyzed in Stat View 4.01 (Abacus Concepts, Inc., Berkeley, Calif.) for calculation of mean, standard deviation, and parametric statistic (t test).

[8] = tested on: islet hormone gene expression in human fetal ICCs; assay: Multiprobe ribonuclease protection assay of islet hormone mRNA; format: cell-based; details: ICCs 5 d, 100 nM wortmannin or 10 μM Ly294002, FIG. 1
Source text: The use of human fetal tissue for these studies was reviewed and approved by the Institutional Review Board at our university. Human fetal pancreases at 18-24 gestational wk were obtained with appropriate permissions and patient consent through nonprofit organ procurement programs (Advanced Bioscience Resources, Oakland, Calif.; Anatomic Gift Foundation, Laurel, Md.). Experiments were started by the enzymatic digestion with collagenase P (Boehringer Mannheim Corp., Indianapolis, Ind.) of the human fetal pancreases followed by tissue culture for 5 d, which led to the formation in vitro of ICCs, as previously described in detail (Otonkoski et al. (1993) J. Clin. Invest. 92:1459-1466). […] Transcriptional analyses on total RNA ([…]) were performed using a multiprobe ribonuclease protection assay, as previously described (Otonkoski et al. (1993) J. Clin. Invest. 92:1459-1466). The housekeeping gene cyclophilin was used as an internal control, and yeast tRNA (10 μM) was included as a negative control. Probes used were of human origin and were described previously (Otonkoski et al. (1993) J. Clin. Invest. 92:1459-1466). Target RNAs were quantitated in autoradiographs by scanning densitometry (LKB UltroScan XL Laser) and integrated using Gel Scan XL software (Pharmacia LKB Biotechnology, Inc., Piscataway, N.J.). The probe-specific mRNA signals were normalized to the cyclophilin signal in each sample to account for differences in sample loading between lanes.

p85 protein = assay: Western blotting of p85 protein; format: cell-based, human; details: during NIC treatment
purified fetal islets = assay: Endocrine function in purified fetal islets; format: cell-based, human
Method: Effects of PI3K inhibitors on endocrine function were tested not only in ICCs, but also in purified islets. Undifferentiated epithelial cells account for z75-80% of the total cell mass in ICCs. By contrast, purified fetal islets contain about 10 fold fewer undifferentiated epithelial cells (Beattie et al. (1996) Diabetes. 46:244-248). Purification of human fetal pancreatic islets was performed as recently described (Beattie et al. (1996) Diabetes. 46:244-248). Fetal islets, identified as homogeneous differentiated clusters of dithizonepositive cells, were incubated with factors as above.

PI3K [9] = assay: Direct effect on PI3K activity in vitro in p85 immunoprecipitates; format: biochemical, human; details: various concentrations of NIC
Method: as §2

hepatocyte growth factor/scatter factor [HGF/SF]
insulin and glucagon gene transcription and insulin protein biosynthesis [1]: marked down-regulation
increase in levels of PIP3 (PIP3; ICCs growing continuously (5 d) with 25 ng/ml HGF/SF, FIG. 6): threefold
cellular PI3K activity after acute stimulation (PI3K [2]; 25 ng/ml HGF/SF, ICCs starved 24 h, antiphosphotyrosine immunoprecipitates, FIG. 5): robustly activated

CO[C@@]12[C@H](COC(N)=O)C3=C(C(=O)C(C)=C(N)C3=O)N1C[C@@H]1N[C@@H]12 [mitomycin C]
insulin protein expression (human fetal ICCs [3]; 2 mg/ml mitomycin C for 5 d, FIG. 4B): does not affect
basal PI3K activity in fetal islet cells significantly affected (PI3K [2]; mitomycin C-treated cells): neither

COC[C@H]1OC(=O)c2coc3c2[C@@]1(C)C1=C(C3=O)[C@@H]2CCC(=O)[C@@]2(C)C[C@H]1OC(C)=O [wortmannin]
cytotoxicity and apoptosis ([4]; continuous treatment 5 d, 100 nM wortmannin, 10 μM Ly294002): does not cause notable cytotoxity nor induce apoptosis
stability in culture medium [5]: much less stable
control PI3K activity eliminated, p85 immunoprecipitates (PI3K [2]; FIG. 7): 90%

O=c1cc(N2CCOCC2)oc2c(-c3ccccc3)cccc12 [Ly294002, 2-(4-Morpholinyl)-8-phenyl-4 H-1-benzopyran-4-one]
insulin content per cellular DNA versus untreated control (human fetal ICCs [3]; ICCs cultured 5 d with inhibitor, FIG. 2A): significantly increased
insulin secretion per cellular DNA versus untreated control (human fetal ICCs [3]; ICCs cultured 5 d with inhibitor, glucose plus theophylline, FIG. 2B): significantly increased
[3H]thymidine incorporation into DNA (human fetal ICCs [6]): significantly decreased
cytotoxicity (general statement) [4]: no significant cytotoxicity
increase in the total percentage of endocrine-positive cells versus control ICCs (human fetal ICCs [7]; 10 μM Ly294002, 5 d): 4.4 fold
frequency of cells coexpressing multiple hormones (human fetal ICCs [7]; 10 μM Ly294002, 5 d, FIG. 3): increased
total endocrine cell surface area (human fetal ICCs [7]; 10 μM Ly294002, 5 d, FIG. 3): significantly increased
endocrine surface area for all hormones (insulin; somatostatin and pp; glucagon), percent of total ICC surface area (human fetal ICCs [7]; 10 μM Ly294002, 5 d, FIG. 3, n=3): significantly increased
number of hormone producing cells growing in ICCs (human fetal ICCs [7]; blockade of PI3K activity in culture): significantly increased
stability in culture medium [5]: very stable
rise in PIP3 formation stimulated by growth factors (PIP3; 100 nM wortmannin or 10 μM Ly294002, intact labeled islet cells): almost completely inhibited
transcriptional level of glucagon [8]: increased
transcriptional level of insulin [8]: increased
transcriptional level of somatostatin [8]: increased
control PI3K activity eliminated, p85 immunoprecipitates (PI3K [2]; FIG. 7): 90%

NC(=O)c1cccnc1 [NIC, nicotinamide]
insulin and glucagon gene transcription and insulin protein biosynthesis [1]: an increase
actual level of p85 protein (p85 protein): no change
basal level of PIP3 versus control cells (PIP3; 10 mM NIC, 5 d, FIG. 6): significantly lower
effect on endocrine function in purified fetal islets (purified fetal islets): no effect
direct inhibitory effect on PI3K activity in vitro (PI3K [9]): not a direct inhibitor
amount of PI3K activity in p85 immunoprecipitates, lower than untreated cells (PI3K [2]; 10 mM NIC, 5 d, FIG. 7): about fivefold
inducibility of cellular PI3K activity by growth factors and de novo formation of PIP3 (PI3K [2]; NIC-treated cells): significantly reduced
